What was measured:
Test in all cases: relative viability (nuclei count vs DMSO), 5 days (fraction); higher = more cells survive
[1] = system: EBC-1
Method in brief: (§1)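 Relative viability divides the nuclei count in treated wells by that in vehicle wells. Lung cancer cell lines were seeded in 1536-well plates, dosed by pin tool the next day, and fixed and stained after 5 days in one step with final 0.05% Triton X-100, 1% formaldehyde and 1 ug/ml Hoechst. Dosing was a single drug or a fixed anchor-drug dose plus five library-drug doses (not always all listed) in √10 steps, and values are medians of duplicate plates imaged at 4×.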

[2] = system: NCI-H1734
Method in brief: as §1

[3] = system: Calu-6
Method in brief: as §1

[4] = system: UMC-11
Method in brief: as §1

[5] = system: NCI-H1299
Method in brief: as §1

[6] = system: NCI-H1703
Method in brief: as §1

[7] = system: CAL-12T
Method in brief: as §1

[8] = system: A549
Method in brief: as §1

[9] = system: LK-2
Method in brief: as §1

[10] = system: NCI-H2009
Method in brief: as §1

[11] = system: A-427
Method in brief: as §1

[12] = system: IA-LM
Method in brief: as §1

SMILES: Cc1sc2c(c1C)C(c1ccc(Cl)cc1)=N[C@@H](CC(=O)OC(C)(C)C)c1nnc(C)n1-2 [JQ1] + Cc1nc(NC(=O)N2CCC[C@H]2C(N)=O)sc1-c1ccnc(C(C)(C)C(F)(F)F)c1 [Alpelisib] (partner 2 µM)
- relative viability ([1]; first compound 0.04 µM): 0.885
- relative viability ([1]; first compound 0.1265 µM): 0.454
- relative viability ([1]; first compound 0.4 µM): 0.226
- relative viability ([1]; first compound 1.265 µM): 0.142
- relative viability ([1]; first compound 4 µM): 0.149
- relative viability ([2]; first compound 0.04 µM): 0.709
- relative viability ([2]; first compound 0.1265 µM): 0.645
- relative viability ([2]; first compound 0.4 µM): 0.637
- relative viability ([2]; first compound 1.265 µM): 0.544
- relative viability ([2]; first compound 4 µM): 0.421
- relative viability ([3]; first compound 0.04 µM): 0.955
- relative viability ([3]; first compound 0.1265 µM): 0.815
- relative viability ([3]; first compound 0.4 µM): 0.818
- relative viability ([3]; first compound 1.265 µM): 0.589
- relative viability ([3]; first compound 4 µM): 0.4
- relative viability ([4]; first compound 0.04 µM): 0.941
- relative viability ([4]; first compound 0.1265 µM): 0.997
- relative viability ([4]; first compound 0.4 µM): 0.26
- relative viability ([4]; first compound 1.265 µM): 0.197
- relative viability ([4]; first compound 4 µM): 0.158
- relative viability ([5]; first compound 0.04 µM): 1.02
- relative viability ([5]; first compound 0.1265 µM): 0.947
- relative viability ([5]; first compound 0.4 µM): 0.951
- relative viability ([5]; first compound 1.265 µM): 0.514
- relative viability ([5]; first compound 4 µM): 0.353
- relative viability ([6]; first compound 0.04 µM): 0.315
- relative viability ([6]; first compound 0.1265 µM): 0.335
- relative viability ([6]; first compound 0.4 µM): 0.297
- relative viability ([6]; first compound 1.265 µM): 0.26
- relative viability ([6]; first compound 4 µM): 0.321
- relative viability ([7]; first compound 0.04 µM): 1.08
- relative viability ([7]; first compound 0.1265 µM): 1.42
- relative viability ([7]; first compound 0.4 µM): 0.919
- relative viability ([7]; first compound 1.265 µM): 0.325
- relative viability ([7]; first compound 4 µM): 0.328
- relative viability ([8]; first compound 0.04 µM): 0.785
- relative viability ([8]; first compound 0.1265 µM): 0.644
- relative viability ([8]; first compound 0.4 µM): 0.509
- relative viability ([8]; first compound 1.265 µM): 0.401
- relative viability ([8]; first compound 4 µM): 0.262
- relative viability ([9]; first compound 0.04 µM): 1.05
- relative viability ([9]; first compound 0.1265 µM): 1.06
- relative viability ([9]; first compound 0.4 µM): 0.55
- relative viability ([9]; first compound 1.265 µM): 0.237
- relative viability ([9]; first compound 4 µM): 0.16
- relative viability ([10]; first compound 0.04 µM): 1.09
- relative viability ([10]; first compound 0.1265 µM): 0.968
- relative viability ([10]; first compound 0.4 µM): 0.697
- relative viability ([10]; first compound 1.265 µM): 0.32
- relative viability ([10]; first compound 4 µM): 0.268
- relative viability ([11]; first compound 0.04 µM): 1.15
- relative viability ([11]; first compound 0.1265 µM): 1.05
- relative viability ([11]; first compound 0.4 µM): 1.11
- relative viability ([11]; first compound 1.265 µM): 0.967
- relative viability ([11]; first compound 4 µM): 0.731
- relative viability ([12]; first compound 0.04 µM): 0.772
- relative viability ([12]; first compound 0.1265 µM): 0.324
- relative viability ([12]; first compound 0.4 µM): 0.143
- relative viability ([12]; first compound 1.265 µM): 0.0875
- relative viability ([12]; first compound 4 µM): 0.103
